Tests used:
Conditions in all cases: pH 7.2; 20 µM decylubiquinone, 100 µM DCPIP, 0.33% succinate, 1 µM antimycin, 4% DMSO
[1] = target: T1, SDH (mitochondrial complex II) of rat (Rattus norvegicus, UniProt P21913+Q641Z9+Q6PCT8)
T1 construct: gene Sdhb

[2] = target: T2, C. elegans SDH (mitochondrial complex II) (Caenorhabditis elegans, UniProt O62215+P41956+Q09545); experiment: succinate:ubiquinone reductase assay, DCPIP reduction at […] nm, mitochondrial protein; type: biochemical
T2 construct: gene sdhb-1; native complex II in mitochondrial preparation; wild-type strain N2 named for cultures, not explicitly for the mitochondria; with Succinate dehydrogenase [ubiquinone] flavoprotein subunit, mitochondrial

[3] = target: T3, SDH (mitochondrial complex II) of earthworm; experiment: as above; type: biochemical, Eisenia andrei
T3 construct: gene SDHB; native complex II in mitochondrial preparation from earthworm; with Succinate dehydrogenase [ubiquinone] flavoprotein subunit, mitochondrial

T2 sequence (Q09545 36-298): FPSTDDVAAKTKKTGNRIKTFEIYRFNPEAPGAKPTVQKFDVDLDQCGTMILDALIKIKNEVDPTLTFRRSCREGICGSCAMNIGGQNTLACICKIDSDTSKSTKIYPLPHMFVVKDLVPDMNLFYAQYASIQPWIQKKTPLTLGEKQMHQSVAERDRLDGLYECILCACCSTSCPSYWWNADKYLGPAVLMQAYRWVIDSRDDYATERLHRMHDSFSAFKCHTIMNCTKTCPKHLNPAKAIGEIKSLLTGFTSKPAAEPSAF
T2 sequence (P41956 31-182): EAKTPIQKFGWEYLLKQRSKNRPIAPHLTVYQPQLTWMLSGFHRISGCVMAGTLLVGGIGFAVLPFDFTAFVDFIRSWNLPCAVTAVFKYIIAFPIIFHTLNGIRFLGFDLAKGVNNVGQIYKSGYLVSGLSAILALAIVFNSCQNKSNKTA
T2 sequence (O62215 32-145): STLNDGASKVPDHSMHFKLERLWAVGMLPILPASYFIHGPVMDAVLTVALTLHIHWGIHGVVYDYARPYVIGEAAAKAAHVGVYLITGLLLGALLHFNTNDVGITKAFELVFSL
T2 sequence (Q09508 32-646 partner): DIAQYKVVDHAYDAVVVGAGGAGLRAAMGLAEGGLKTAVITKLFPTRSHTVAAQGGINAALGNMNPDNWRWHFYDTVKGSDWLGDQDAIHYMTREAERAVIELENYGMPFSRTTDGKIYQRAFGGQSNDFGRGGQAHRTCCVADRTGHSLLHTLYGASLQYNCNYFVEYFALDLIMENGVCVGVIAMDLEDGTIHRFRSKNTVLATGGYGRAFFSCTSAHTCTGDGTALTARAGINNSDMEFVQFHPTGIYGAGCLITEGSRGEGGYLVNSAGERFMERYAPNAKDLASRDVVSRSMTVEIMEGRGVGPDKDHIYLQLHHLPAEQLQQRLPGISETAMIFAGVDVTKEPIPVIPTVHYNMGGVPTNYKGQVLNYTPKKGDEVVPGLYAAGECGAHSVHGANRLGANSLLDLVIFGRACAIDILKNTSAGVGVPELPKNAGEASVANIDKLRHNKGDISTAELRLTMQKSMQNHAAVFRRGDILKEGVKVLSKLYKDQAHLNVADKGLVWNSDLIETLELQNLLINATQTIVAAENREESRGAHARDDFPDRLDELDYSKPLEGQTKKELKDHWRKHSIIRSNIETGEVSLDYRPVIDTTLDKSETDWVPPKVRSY
T1 sequence (P21913 31-282): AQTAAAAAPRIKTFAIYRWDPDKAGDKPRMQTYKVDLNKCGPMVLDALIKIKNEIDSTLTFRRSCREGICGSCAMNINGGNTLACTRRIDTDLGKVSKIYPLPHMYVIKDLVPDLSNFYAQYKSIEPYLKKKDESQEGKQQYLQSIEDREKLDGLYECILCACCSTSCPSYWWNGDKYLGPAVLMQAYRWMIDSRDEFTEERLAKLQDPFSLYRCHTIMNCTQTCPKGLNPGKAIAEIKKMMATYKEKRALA
T1 sequence (Q641Z9 30-169): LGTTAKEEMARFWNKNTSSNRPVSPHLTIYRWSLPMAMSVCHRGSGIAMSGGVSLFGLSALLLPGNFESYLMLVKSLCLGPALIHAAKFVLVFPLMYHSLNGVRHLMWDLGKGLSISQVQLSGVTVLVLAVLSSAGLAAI
T1 sequence (Q6PCT8 57-159): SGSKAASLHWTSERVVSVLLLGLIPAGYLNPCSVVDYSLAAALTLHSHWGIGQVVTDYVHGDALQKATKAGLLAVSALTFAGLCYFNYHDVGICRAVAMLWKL
T1 sequence (Q920L2 35-656 partner): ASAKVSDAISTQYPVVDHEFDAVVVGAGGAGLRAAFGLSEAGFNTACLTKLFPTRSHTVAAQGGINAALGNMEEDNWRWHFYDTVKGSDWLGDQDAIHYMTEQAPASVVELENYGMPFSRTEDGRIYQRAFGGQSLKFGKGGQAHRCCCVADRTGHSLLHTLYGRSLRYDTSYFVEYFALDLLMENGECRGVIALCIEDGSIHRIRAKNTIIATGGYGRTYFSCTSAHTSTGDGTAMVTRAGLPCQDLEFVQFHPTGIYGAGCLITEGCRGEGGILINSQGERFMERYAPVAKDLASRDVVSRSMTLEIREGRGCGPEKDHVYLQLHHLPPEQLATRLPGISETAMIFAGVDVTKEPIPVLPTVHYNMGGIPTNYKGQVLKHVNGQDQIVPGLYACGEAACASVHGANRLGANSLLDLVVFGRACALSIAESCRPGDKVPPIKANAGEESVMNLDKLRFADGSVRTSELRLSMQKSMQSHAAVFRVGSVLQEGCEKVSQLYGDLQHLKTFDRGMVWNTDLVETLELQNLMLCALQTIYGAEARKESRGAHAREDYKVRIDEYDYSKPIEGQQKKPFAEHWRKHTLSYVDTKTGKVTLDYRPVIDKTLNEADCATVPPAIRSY

SMILES | pIC50 [1] | pIC50 [2] | pIC50 [3]
COc1[nH]c(=O)c(C(=O)[C@@H](C)C[C@H](C)[C@@H](Cl)CCl)c(O)c1OC [Atpenin A5] | 8.2 | 7.7 | 8.1
O=C(NCCc1ncc(C(F)(F)F)cc1Cl)c1ccccc1C(F)(F)F [fluopyram] | – | 8.5 | –
CC(C)Oc1cccc(NC(=O)c2ccccc2C(F)(F)F)c1 [flutolanil] | – | 6.5 | 6.0
